Read-outs that look alike come from different tables or passages of the source.
Key:
w794 DNA [1] = test: DNA alkylation (thermal strand cleavage, PAGE) within w794 DNA; assay type: biochemical, SV40
w794 DNA [2] = test: Relative rates of DNA alkylation for (+)-1, 53 and 54 at the w794 5'-AATTA site; assay type: biochemical, SV40; details: for concentration dependence of the rate of DNA alkylation: 10^-4 -10^-6 M
Method: Modifications in the Trimethoxyindole Subunit: Role of the Methoxy Substituents. DNA alkylation by the natural enantiomers of 53-56 were compared with that of 1 in w794 DNA.
Relative Rates of DNA Alkylation for (+)-1, 53, and 54. Following the procedure detailed above, Eppendorf tubes containing 5' end-labeled w794 DNA (9 μL) in TE buffer (pH 7.5) were treated with (+)-duocarmnycin SA, 53, or 54 (1 μL, 10^-5 M in DMSO). […] The solutions were mixed and incubated at 25° C. for 1, 3, 6, 12, 24, 48, and 72 h, respectively. Subsequent isolation of the alkylated DNA by EtOH precipitation, resuspension in TE buffer (10 μL, pH 7.5), thermolysis (30 min, 100° C.), concurrent PAGE, and autoradiography were conducted as detailed above. The relative rate for the alkylation at the 5'-AATTA site was derived from the slopes of the plots of percent integrated optical density (IOD) of the high affinity alkylation site cleavage bands versus time.

[3] = system: duplex DNA (w794, w836, c988, c820, c1346); assay type: biochemical, SV40; details: for sequence preference at the alkylation site: consensus alkylation sequence; for alkylation of individual three-base sequences: 5'-TTA or 5'-ATA
w836 DNA = test: DNA alkylation sites and relative rates within the six-base A sequence (5'-AAAAAA) of w836 DNA; assay type: biochemical, SV40; details: for alkylated adenines within six-base A-rich sequence of w836 DNA / AT-rich binding site covered in w836 DNA: 5'-AAAAAA
[4] = In vitro cytotoxic activity; details: for more potent cytotoxicity than simple derivatives N--BOC-DSA (4) and N--Ac-DSA / cytotoxic potency compared with simple derivatives N--BOC-DSA (4) and N--Ac-DSA: natural enantiomers; for cytotoxic potency, effect of terminal N^2 substituent (18, 23, 24 compared): natural and unnatural enantiomers
[5] = natural enantiomers, 25° C., 24 h
[6] = 5×10^-6 M agent (so in the source), 25° C., w836 5'-AAAAAA

Compound: COC(=O)c1cc2c([nH]1)C(=O)C=C1N(C(=O)c3cc4cccc(OC)c4[nH]3)CC3CC123 (single isomer, unassigned) [compound 56, Methyl 2-[(7-Methoxyindol-2-yl)carbonyl]-1,2,8,8a-tetrahydrocyclopropa[c]pyrrolo[3,2-e]indol-4-one-6-carboxylate]
- less efficient DNA alkylation than 1 (w794 DNA [1]; [5]): 5-10 ×

Compound: COC(=O)c1cc2c([nH]1)C(=O)C=C1N(C(=O)c3cc4ccccc4[nH]3)CC3CC123 (single isomer, unassigned) [compound 53, Methyl 2-[(Indol-2-yl)carbonyl]-1,2,8,8a-tetrahydrocyclopropa[c]pyrrolo[3,2-e]indol-4-one-6-carboxylate]
- less effective at DNA alkylation than duocarmycin SA (w794 DNA [1]; (+) enantiomer): 6-10 ×
- less efficient DNA alkylation than 1 (w794 DNA [1]; [5]): 20 ×
- concentration dependence of the rate of DNA alkylation (w794 DNA [2]): independent of agent concentration

Compound: COc1c(O)c2c(c3cc(C(=O)N4CCc5c4c(O)c(OC)c4[nH]c(C(=O)N6CC7CC78C6=CC(=O)c6[nH]cc(C)c68)cc54)[nH]c13)CCN2C(N)=O (stereo not drawn) [ent-(-)-CC-1065, reference compound]
- AT-rich adenine N3 alkylation selectivity (size of site) [3]: 5 base-pair
- high affinity alkylation site in w794 DNA (w794 DNA [1]): 5'-AATTT

Compound: COC(=O)c1cc2c([nH]1)C(=O)C=C1N(C(=O)c3cc4cc(OC)ccc4[nH]3)CC3CC123 (single isomer, unassigned) [compound 54, Methyl 2-[(5-Methoxyindol-2-yl)carbonyl]-1,2,8,8a-tetrahydrocyclopropa[c]pyrrolo[3,2-e]indol-4-one-6-carboxylate]
- DNA alkylation compared with duocarmycin SA (1), in words (w794 DNA [1]; [5]): essentially indistinguishable from 1
- concentration dependence of the rate of DNA alkylation (w794 DNA [2]): independent of agent concentration
- relative rate of DNA alkylation κrel versus 53 (w794 DNA [2]; 10^-5 M, 25° C., 1-72 h, 5'-d(AATTA)): 18-33

Compound: COC(=O)c1cc2c3c(ccc2[nH]1)N(C(=O)c1cc2c4c(ccc2[nH]1)N(C(=O)c1cc2c([nH]1)C(=O)C=C1N(C(=O)OC(C)(C)C)CC5CC125)CC4)CC3 (centres unmarked) [compound 20, 6-[7-[Methyl 1,2-Dihydro-(3H-pyrrolo[3,2-e]indole-3-yl)carbonyl-7-carboxylate]1,2-dihydro-(3H-pyrrolo[3,2-e]indole-3-yl)carbonyl]-2-((tert-butyloxy)carbonyl)-1,2,8,8a-tetrahydrocyclopropa[c]pyrrolo[3,2-e]indol-4-one]
- alkylated adenines within six-base A-rich sequence of w836 DNA (w836 DNA): the natural enantiomer of 20 alkylated the same sites as ent-(-)-DSA-CDPI2 while the unnatural enantiomer of 20 alkylated the same sites as the natural enantiomer (+)-DSA-CDPI2
- time required to reach a detectable and diminished level of DNA alkylation (w836 DNA; 5×10^-6 M agent (so in the source), 25° C., both enantiomers): 72 h
- more potent cytotoxicity than simple derivatives N--BOC-DSA (4) and N--Ac-DSA [4]: less than 10 ×
- cytotoxic potency of the two enantiomers compared ([4]; natural versus unnatural enantiomer): nearly equipotent

Compound: COC(=O)c1cc2c3c(ccc2[nH]1)N(C(=O)c1cc2c4c(ccc2[nH]1)N(C(=O)c1cc2c([nH]1)C(=O)C=C1N(C(=O)OC(C)(C)C)C[C@H]5C[C@]125)CC4)CC3 [(+)-CDPI2 -DSA]
- AT-rich adenine N3 alkylation selectivity (size of site) [3]: 5 base-pair
- sequence preference at the alkylation site [3]: 5'-AAA>5'-AAT≥5'-TAA>5'-TAT
- alkylation at the natural-enantiomer high affinity site (5'-AATTA) (w794 DNA [1]): without detectable alkylation
- high affinity alkylation site in w794 DNA (w794 DNA [1]): 5'-AATTT

Compound: COC(=O)c1cc2c([nH]1)C(=O)C=C1N(C(=O)c3cc4ccc(OC)cc4[nH]3)CC3CC123 (single isomer, unassigned) [compound 55, Methyl 2-[(6-Methoxyindol-2-yl)carbonyl]-1,2,8,8a-tetrahydrocyclopropa[c]-pyrrolo[3,2-e]indol-4-one-6-carboxylate]
- less efficient DNA alkylation than 1 (w794 DNA [1]; [5]): 5-10 ×

Compound: COC(=O)c1cc2c3c(ccc2[nH]1)N(C(=O)c1cc2c([nH]1)C(=O)C=C1N(C(=O)c4cc5c6c(ccc5[nH]4)N(C(N)=O)CC6)CC4CC124)CC3 (single isomer, unassigned; (+)) [(+)-30]
- AT-rich adenine N3 alkylation selectivity (size of site) [3]: 5 base-pair
- sequence preference at the alkylation site [3]: 5'-AAA>5'-AAT≥5'TAA>5 TAT
- alkylated adenines within six-base A-rich sequence of w836 DNA (w836 DNA): alkylated those central to the sequence

Compound: COC(=O)c1cc2c([nH]1)C(=O)C=C1N(C(=O)c3cc4c5c(ccc4[nH]3)N(C(=O)c3cc4c6c(ccc4[nH]3)N(C(N)=O)CC6)CC5)CC3CC123 (single isomer, unassigned; (+)) [(+)-DSA-CDPI2]
- AT-rich adenine N3 alkylation selectivity (size of site) [3]: 5 base-pair
- alkylation of individual three-base sequences [3]: unusually effective alkylation of 5'-TTA
- sequence preference at the alkylation site [3]: 5'-AAA>5'-TTA>5'-TAA≥5'-ATA
- alkylation of the minor w794 site (5'-CAAAG) (w794 DNA [1]): failed to alkylate
- high affinity alkylation site in w794 DNA (w794 DNA [1]): 5'-AATTA
- AT-rich binding site covered in w836 DNA (w836 DNA): 5 base-pair
- alkylated adenines within six-base A-rich sequence of w836 DNA (w836 DNA): only the 3' adenines
- time after which extensive DNA alkylation is exhibited (w836 DNA; [6]): 1 to 5 min

Compound: COC(=O)c1cc2cc(NC(=O)c3cc4cc(NC(=O)c5cc6c([nH]5)C(=O)C=C5N(C(=O)OC(C)(C)C)CC7CC567)ccc4[nH]3)ccc2[nH]1 (centres unmarked) [compound 18, N-{2-[N-(2-Methoxycarbonyl-1H-indol-5-yl)]carbamoyl-1H-indol-5-yl}-2-(tert-butyloxycarbonyl)-1,2,8,8a-tetrahydrocyclopropa[c]pyrrolo[3,2-e]indol-4-one-6-carboxamide]
- AT-rich adenine N3 alkylation selectivity (size of site) [3]: 5 base-pair
- comparison of DNA alkylation selectivity [3]: no differences in their DNA alkylation selectivity
- less efficient at alkylating DNA than DSA-indole2 [3]: ca. 100 ×
- slower DNA alkylation than DSA-indole2 [3]: ca. 1000 ×
- unnatural enantiomer less effective at DNA alkylation than natural enantiomer [3]: approximately 10 ×
- cytotoxic potency, effect of terminal N^2 substituent (18, 23, 24 compared) [4]: essentially indistinguishable
- cytotoxic potency compared with simple derivatives N--BOC-DSA (4) and N--Ac-DSA [4]: essentially indistinguishable

Compound: COC(=O)c1cc2c3c(ccc2[nH]1)N(C(=O)c1cc2c([nH]1)C(=O)C=C1N(C(=O)OC(C)(C)C)CC4CC124)CC3 (centres unmarked) [compound 19, 6-[(Methyl 1,2-Dihydro-3H-pyrrolo[3,2-e]indole-3-yl)carbonyl-7-carboxylate]-2-((tert-butyloxy)carbonyl)-1,2,8,8a-tetrahydrocyclopropa[c]-pyrrolo[3,2-e]indol-4-one]
- AT-rich adenine N3 alkylation selectivity (size of site) [3]: 3.5 base-pair
- more potent cytotoxicity than simple derivatives N--BOC-DSA (4) and N--Ac-DSA [4]: less than 10 ×

Compound: COC(=O)c1cc2c3c(ccc2[nH]1)N(C(=O)c1cc2c4c(ccc2[nH]1)N(C(=O)c1cc2c([nH]1)C(=O)C=C1N(C(=O)OC(C)(C)C)C[C@@H]5C[C@@]125)CC4)CC3 [ent-(-)-CDPI2 -DSA]
- AT-rich adenine N3 alkylation selectivity (size of site) [3]: 5 base-pair
- alkylation of individual three-base sequences [3]: under represented alkylation of 5'-ATA
- sequence preference at the alkylation site [3]: 5'-AAA>5'-TAA>5'-TTA>5'-ATA
- high affinity alkylation site in w794 DNA (w794 DNA [1]): 5'-AATTA

Compound: COC(=O)c1cc2c([nH]1)C(=O)C=C1N(C(=O)c3cc4c5c(ccc4[nH]3)N(C(=O)c3cc4c6c(ccc4[nH]3)N(C(N)=O)CC6)CC5)CC3CC123 (single isomer, unassigned) [ent-(-)-DSA-CDPI2]
- AT-rich adenine N3 alkylation selectivity (size of site) [3]: 5 base-pair
- high affinity alkylation site in w794 DNA (w794 DNA [1]): 5'-AATTT
- high affinity alkylation site in w794 DNA (w794 DNA [1]; listed as (-)-DSA-CDPI2): 5'-AATTT
- AT-rich binding site covered in w836 DNA (w836 DNA): 5 base-pair
- alkylated adenines within six-base A-rich sequence of w836 DNA (w836 DNA): 5' terminal adenines
- time required to approach the same level of DNA alkylation as (+)-DSA-CDPI2 (w836 DNA; 5×10^6 M agent (so in the source), 25° C., w836 5'-AAAAAA): 6 h

Compound: COC(=O)c1cc2c3c(ccc2[nH]1)N(C(=O)c1cc2c([nH]1)C(=O)C=C1N(C(=O)c4cc5c6c(ccc5[nH]4)N(C(N)=O)CC6)CC4CC124)CC3 (single isomer, unassigned) [ent-(-)-30]
- sequence preference at the alkylation site [3]: 5'-AAA>5'-AAT≥5'TAA>5 TAT
- alkylated adenines within six-base A-rich sequence of w836 DNA (w836 DNA): alkylated those central to the sequence

Compound: COC(=O)c1cc2c3c(ccc2[nH]1)N(C(=O)c1cc2c([nH]1)C(=O)C=C1N(C(=O)c4cc5c6c(ccc5[nH]4)N(C(N)=O)CC6)CC4CC124)CC3 (centres unmarked) [compound 30]
- AT-rich adenine N3 alkylation selectivity (size of site) [3]: 5 base-pair
- time after which extensive DNA alkylation is exhibited (w836 DNA; [6]): 1 to 5 min
- cytotoxic potency compared with typical agents [4]: essentially equipotent with the typical agents

Compound: COC(=O)c1cc2cc(NC(=O)c3cc4cc(NC(=O)c5cc6c([nH]5)C(=O)C=C5N(C(C)=O)CC7CC567)ccc4[nH]3)ccc2[nH]1 (centres unmarked) [compound 23, N-{2-[N-(2-Methoxycarbonyl-1H-indol-5-yl)]carbamoyl-1H-indol-5-yl}-2-acetyl-1,2,8,8a-tetrahydrocyclopropa[c]pyrrolo[3,2-e]indole4-one-6-carboxamide]
- comparison of DNA alkylation selectivity [3]: no differences in their DNA alkylation selectivity
- less efficient at alkylating DNA than DSA-indole2 [3]: ca. 100 ×
- more efficient DNA alkylation than the BOC derivative 18 [3]: 2-5 ×
- slower DNA alkylation than DSA-indole2 [3]: ca. 1000 ×
- unnatural enantiomer less effective at DNA alkylation than natural enantiomer [3]: approximately 10 ×
- cytotoxic potency, effect of terminal N^2 substituent (18, 23, 24 compared) [4]: essentially indistinguishable
- cytotoxic potency compared with simple derivatives N--BOC-DSA (4) and N--Ac-DSA [4]: essentially indistinguishable

Compound: COC(=O)c1cc2c([nH]1)C(=O)C=C1N(C(=O)c3cc4c5c(ccc4[nH]3)N(C(N)=O)CC5)CC3CC123 (single isomer, unassigned; (+)) [(+)-DSA-CDPI1]
- alkylation of the minor w794 site (5'-CAAAG) (w794 DNA [1]): prominently alkylates
- concentration required at minor site (5'-CAAAG) relative to major 5'-AATTA site (w794 DNA [1]): 10 x

— patent US6281354A, “Analogs of duocarmycin and cc-1065” (The Scripps Research Institute, priority 1999, dated 2001)
